Measurements reported in patent US20220015363A1, “SMALL MOLECULE PATHOGEN DISPERSAL AGENT” (The Trustees of Princeton University, priority 2020, published 2022).

Tests used:
P. aeruginosa = assay: orientation of surface attachment (vertical vs horizontal) of cells; assay type: cell-based; settings: 10 mM MHQ; ntotal=1331; PBS control 76%
Protocol: Upon treatment with phosphate buffered saline (PBS), 76% (ntotal=1347) of the cells attached to the surface vertically. In contrast, upon treatment with, e.g., 10 mM MHQ, only 5% (ntotal=1331) of the cells attached to the surface vertically. A similar behavior is found between MHQ-treated WT cells and mutants lacking Type IV pilin subunits (PilA), as only 7% (ntotal=1995) of ΔpilA cells were attached vertically even in PBS treatment.

[1] = test system: type IV pili (T4P) twitching motility; assay: twitching assay (spread under agar, crystal violet staining); assay type: cell-based, P. aeruginosa
Text: Since T4P is required for twitching motility, the dispersing compound's effect on a pathogen can be seen in a twitching assay. In this assay, cells are placed underneath agar and allowed to spread from their starting spot along the bottom surface of a Petri dish. The extent of this spread is visualized with crystal violet staining and quantified. In the presence of agar made with LB, WT cells traveled 11±0.7 mm (mean±SD) from the starting spot. […] The effect of MHQ on twitching depended on T4P, as ΔpilA cells that lack T4P traveled similar distances away from the starting spot in the absence of MHQ (1.9±0.1 mm) or in the presence of MHQ (2.3±0.3 mm).

T4P activity = assay: T4P dynamics imaging by cysteine-labeling of PilA; assay type: cell-based, P. aeruginosa; settings: 2 mM MHQ for 5 min; n=493; PBS control 77%
Protocol: To directly assay the effect of a dispersing compound on T4P activity, the recently developed cysteine-labeling approach can be used to fluorescently label T4P and image their dynamics. This approach uses a cysteine point mutation in an unstructured loop of the PilA pilin subunit to label the pili through maleimide-based click chemistry. In one experiment, the pili of untreated cells were labeled and then imaged T4P dynamics after a brief (5 min) exposure to MHQ or PBS control. Following a 5 min mock treatment with PBS, T4P were seen extending and retracting from 77% of the cells (n=473). […] Since the T4P was labeled before MHQ treatment and the treatment was brief, this effect cannot be attributed to effects of MHQ on TFP expression or labeling. Similar results can be seen with other disclosed dispersing compounds.

Cc1cc(O)c2ccccc2n1 [MHQ, 2-methyl-4-hydroxyquinoline]
cells attached to the surface vertically (P. aeruginosa): 5%
distance traveled from the starting spot ([1]; WT cells, agar made with LB and 2 mM MHQ, mean±SD, LB alone 11±0.7 mm): 7±0.5 mm
distance traveled from the starting spot ([1]; ΔpilA cells that lack T4P, in the presence of MHQ, without MHQ 1.9±0.1 mm): 2.3±0.3 mm
cells exhibiting any T4P extension or retraction events (T4P activity): 4%
